Results taken from patent publication US20220031710A1, “USE OF ERK5 INHIBITORS FOR TREATING GLIOMAS IN PEDIATRIC SUBJECTS” (UNIVERSITY OF PITTSBURGH - OF THE COMMONWEALTH SYSTEM OF …, priority 2019, published 2022).
Where a SMILES comes first, the peptide text is derived from it. The star is where a group is joined. Cbz = O=C(OCc1ccccc1)*

Key:
[1] = test system: RASAL1; experiment: Western blot of RASAL1 after decitabine treatment; type: cell-based, human; conditions: DIPG-007 and NSC H3K27M cells; 5 days; 1 μM
Description: (§1) Cell pellets were lysed in PLC lysis buffer containing protease and phosphatase inhibitors (Roche Inc.). Protein lysates were quantified using the bicinchoninic acid (BCA) assay (Pierce Chemical Co., Rockford, Ill.). 30 μg of total protein lysate was loaded in 10% SDS-PAGE gels and electrophoresed. Proteins were transferred to PVDF membranes using a semi-dry transfer apparatus (Bio-Rad). Membranes were blocked for one hour and probed for various proteins overnight in 5% non-fat milk or 5% BSA in Tris Buffered Saline Solution, 0.5% Tween-20 (TBST) or Phosphate Buffered Saline Solution with 0.5% Tween-20 (PBST). Membranes were washed for 5 mins in TBST (3×) and incubated with horseradish peroxidase-conjugated antibodies specific for the primary antibody (BioRad Laboratories, Inc., CA, USA). Binding was detected using Chemiluminescence Reagent Plus (PerkinElmer Inc., MA, USA).

[2] = test system: MYC; experiment: Western blot of phospho MYC S62 and total MYC in DIPG cells; type: cell-based, human; conditions: DIPG-IV cells with ERK5 knockdown (Dox); MG132 10 uM
Description: as §1

[3] = biological target: T1, EZH2 (Homo sapiens, UniProt Q15910); experiment: Western blot of H3K27Me3, RAS activation and p16 in NSCs treated with EZH2 inhibitor; type: cell-based; conditions: GSK343 (504)
T1 construct: endogenous in cells; host or cells: H9 hESC-derived human neural stem cells
Description: RAS activity was measured using the RAS activation assay (Cell Signaling Technology, Cat #8814). Briefly, active Ras Detection GST-RAF1-RBD fusion protein was used to bind the activated form of GTP-bound RAS, which was then immunoprecipitated from 500 μg of total cell lysate with glutathione resin. RAS activation levels were then determined by western blot using a RAS Mouse mAb. Activated RAS immune-precipitate was normalized to total RAS from whole cell lysate.
as §1

[4] = test system: NSCs; experiment: Direct Trypan-Blue automated cell count of NSCs treated with EZH2 inhibitor; type: cell-based, human; conditions: GSK343 (504), over 5 days
Description: Direct cell counts were performed using the Countess II FL Automated Cell Counter (ThermoFisher Scientific). Alamar blue viability (ThermoFisher Scientific) and the 5-bromo-2′-deoxyuridine (BrdU) incorporated cell proliferation assay (Cell Signaling Technology Cat #6813) were performed using the manufacturer's standard protocol. EC50 curve analysis was performed using raw fluorescent Alamar blue values that were inputted into PRISM 7.0. Drug concentrations were log 10 transformed and values normalized to percent viability with respect to vehicle treated cells. EC50 values were interpolated from a log inhibitor vs. normalized response with variable slope using a least square fit model.

T1 sequence (Q15910 whole entry): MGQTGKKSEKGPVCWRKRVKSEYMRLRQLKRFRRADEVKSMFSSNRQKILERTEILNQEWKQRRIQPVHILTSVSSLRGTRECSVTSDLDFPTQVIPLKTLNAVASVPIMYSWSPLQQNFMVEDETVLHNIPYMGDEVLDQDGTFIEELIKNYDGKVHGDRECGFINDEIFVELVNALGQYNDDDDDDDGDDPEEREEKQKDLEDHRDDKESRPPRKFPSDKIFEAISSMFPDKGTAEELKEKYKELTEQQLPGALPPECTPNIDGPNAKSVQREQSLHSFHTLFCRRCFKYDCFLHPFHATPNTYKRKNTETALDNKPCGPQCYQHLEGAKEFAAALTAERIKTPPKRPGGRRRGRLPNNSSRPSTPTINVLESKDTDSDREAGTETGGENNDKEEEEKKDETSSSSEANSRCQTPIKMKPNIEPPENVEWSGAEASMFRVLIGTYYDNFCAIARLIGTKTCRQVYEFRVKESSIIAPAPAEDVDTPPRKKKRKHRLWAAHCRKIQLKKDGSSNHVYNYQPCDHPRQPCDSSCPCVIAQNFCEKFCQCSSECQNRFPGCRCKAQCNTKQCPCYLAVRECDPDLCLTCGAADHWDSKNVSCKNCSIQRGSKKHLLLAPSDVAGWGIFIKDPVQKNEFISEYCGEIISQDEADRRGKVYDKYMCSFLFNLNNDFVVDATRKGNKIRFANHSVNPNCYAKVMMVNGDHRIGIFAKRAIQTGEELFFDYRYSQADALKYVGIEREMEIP
T1 sequence (O75530 whole entry partner): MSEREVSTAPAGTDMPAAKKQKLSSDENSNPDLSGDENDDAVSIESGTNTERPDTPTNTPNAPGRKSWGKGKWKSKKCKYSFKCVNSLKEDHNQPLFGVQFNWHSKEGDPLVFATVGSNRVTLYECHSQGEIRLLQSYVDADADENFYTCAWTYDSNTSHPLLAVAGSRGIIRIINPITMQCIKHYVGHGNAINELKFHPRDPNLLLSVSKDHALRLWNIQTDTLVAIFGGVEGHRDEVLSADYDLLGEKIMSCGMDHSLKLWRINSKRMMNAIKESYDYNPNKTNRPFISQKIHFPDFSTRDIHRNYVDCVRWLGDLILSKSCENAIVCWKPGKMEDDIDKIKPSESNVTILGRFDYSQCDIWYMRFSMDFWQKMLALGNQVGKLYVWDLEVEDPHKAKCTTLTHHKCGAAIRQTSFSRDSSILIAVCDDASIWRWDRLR
T1 sequence (Q15022 whole entry partner): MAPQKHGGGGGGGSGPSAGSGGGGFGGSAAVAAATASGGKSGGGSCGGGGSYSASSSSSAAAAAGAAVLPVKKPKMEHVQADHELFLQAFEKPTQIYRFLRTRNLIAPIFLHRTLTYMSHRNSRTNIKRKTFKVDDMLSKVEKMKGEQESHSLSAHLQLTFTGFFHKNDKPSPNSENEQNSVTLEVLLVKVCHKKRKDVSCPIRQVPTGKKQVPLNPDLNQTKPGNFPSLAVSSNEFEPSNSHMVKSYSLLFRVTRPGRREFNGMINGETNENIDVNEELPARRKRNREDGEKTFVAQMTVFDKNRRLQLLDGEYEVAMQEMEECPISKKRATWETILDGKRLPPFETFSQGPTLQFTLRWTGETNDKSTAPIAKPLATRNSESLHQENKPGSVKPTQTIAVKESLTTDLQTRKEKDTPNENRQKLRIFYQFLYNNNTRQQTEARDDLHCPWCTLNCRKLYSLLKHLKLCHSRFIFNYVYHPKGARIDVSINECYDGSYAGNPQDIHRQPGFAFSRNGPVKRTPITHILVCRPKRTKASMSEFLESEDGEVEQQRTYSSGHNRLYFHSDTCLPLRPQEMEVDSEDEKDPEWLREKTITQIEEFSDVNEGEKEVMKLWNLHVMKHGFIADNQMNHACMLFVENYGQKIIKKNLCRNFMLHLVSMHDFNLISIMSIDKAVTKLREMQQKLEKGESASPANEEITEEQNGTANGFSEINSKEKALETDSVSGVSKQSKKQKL
T1 sequence (Q09028 whole entry partner): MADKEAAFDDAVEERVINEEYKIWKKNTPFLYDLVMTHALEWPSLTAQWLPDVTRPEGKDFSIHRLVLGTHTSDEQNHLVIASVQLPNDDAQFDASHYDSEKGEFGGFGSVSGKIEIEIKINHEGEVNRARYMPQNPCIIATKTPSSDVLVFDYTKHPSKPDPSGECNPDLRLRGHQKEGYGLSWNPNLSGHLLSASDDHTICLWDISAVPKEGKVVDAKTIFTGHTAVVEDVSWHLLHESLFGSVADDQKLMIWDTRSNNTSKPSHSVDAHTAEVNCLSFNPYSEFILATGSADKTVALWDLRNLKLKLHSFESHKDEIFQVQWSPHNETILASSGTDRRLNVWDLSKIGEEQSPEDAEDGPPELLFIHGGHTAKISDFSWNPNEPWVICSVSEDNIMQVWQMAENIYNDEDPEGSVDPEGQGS

Nc1ncn([C@H]2C[C@H](O)[C@@H](CO)O2)c(=O)n1 [decitabine, 5-aza-2′-deoxycytidine]
expression of RASAL1 protein [1]: restored

CC(C)C[C@@H](C=O)NC(=O)[C@H](CC(C)C)NC(=O)[C@H](CC(C)C)NC(=O)OCc1ccccc1 [MG132] (Cbz-Leu-Leu-Leu-aldehyde)
protein expression of total MYC [2]: restored

CCCc1cc(C)[nH]c(=O)c1CNC(=O)c1cc(-c2ccnc(N3CCN(C)CC3)c2)cc2c1cnn2C(C)C [GSK343]
CDKN2A locus (p16 protein immunoblot) [3]: activation of the CDKN2A locus
H3K27Me3 [3]: loss of H3K27Me3
activated RAS [3]: reduced activated RAS
cell proliferation [4]: reduced cell proliferation
